“Also recorded” adds a separate entry of the source. Like-named read-outs stand apart in the source and are kept apart here.
What was measured:
[1] = tested on: normal human bronchial epithelial cells; assay: LAP adhesion assay, normal human bronchial epithelial cells (xCELLigence); assay type: cell-based; conditions: FIG. 3A
Procedure: Human bronchial epithelial cells are known to express αVβ6 integrin in culture. Human bronchial epithelial cells were prepared for the assay by dissociation with trypsin/EDTA and were then seeded at 20,000 cells per well on 96 well plates (ACEA Bioscience E-plate View, Acea Biosciences; San Diego, CA) previously coated with 5 μg/ml of recombinant human LAP (R&D Systems; Minneapolis, MN) and blocked with 4% bovine serum albumin.

[2] = tested on: IPF-derived human lung fibroblasts; assay: LAP adhesion assay, IPF-derived human lung fibroblasts (xCELLigence); assay type: cell-based; conditions: adhesion to LAP, FIG. 3B
Procedure: Two latency associated peptide (LAP) adhesion binding assays were devised using primary human lung cells, including normal (healthy) human bronchial epithelial cells and human lung fibroblasts (healthy and IPF).
Human lung fibroblasts derived from normal and IPF lung tissue are known to express αVβ1 integrin. The IPF-derived human lung fibroblasts were prepared for the assay by dissociation with trypsin/EDTA, and were seeded at 20,000 cells per well on 96 well plates (ACEA Bioscience E-plate View, Acea Biosciences; San Diego, CA) previously coated with […] of recombinant human LAP (R&D Systems; Minneapolis, MN) and blocked with 4% bovine serum albumin. Cell index (electrical impedance) was measured to assess cell attachment/spreading every 3 minutes for 24 hours at 37° C./5% CO2 using the xCELLigence RTCA MP Instrument (Acea Biosciences; San Diego, CA). […] In the assay, the IPF-derived human lung fibroblasts were separately incubated with: the αVβ1-selective small molecule inhibitor; the selective antibody αVβ6 inhibitor, 3G9; and Compound 5.

bleomycin-treated mice = assay: Murine bleomycin model (pSMAD3, collagen deposition); assay type: in vivo, mice (C57BL/6)
Procedure: Mice (C57BL/6) were divided into healthy (n=15), vehicle-treated (n=15), and test article-treated (n=15 per dose) groups. Mice in the vehicle and test article-treated groups were administered 3 U/kg of bleomycin (Teva Pharmaceuticals; North Wales, PA) via oropharyngeal aspiration while under anesthesia on day 0. Healthy animals were administered water in a similar fashion. Starting on day 7, mice in the control group were administered PBS vehicle, 130 μL, by oral gavage, BID for 14 days. Also starting on day 7, mice in the test group were administered Compound 5 in PBS by oral gavage, BID for 14 days, at relative dosages of 1×, 2.5× and 5×. […] From day 14 through day 21, 9 of the 15 mice were administered ^2H2O for labeling. All mice were sacrificed on day 21 and tissues were collected. Samples were prepared for analysis either directly from lung tissue, or by bronchoalveolar lavage, which washes out the bronchiolar and alveolar space with saline to produce a bronchoalveolar lavage fluid (BALF) in which 80-90% of cells are alveolar macrophages.
FIGS. 4F, 4G, and 4H show high resolution second harmonic generation images of fibrillar collagen (collagen type I and III) taken from formalin-fixed paraffin embedded lung tissue sections from a healthy mouse lung (4F), a vehicle-treated mouse lung (4G) and a test-article treated mouse lung (4H; 500 mg/kg BID). Color scale is indicative of collagen fiber density (red=most dense; blue=least dense).
FIG. 41 is a graph showing the percent total collagen area in the second harmonic generation mouse lung images. Large structural areas of collagen found similarly in healthy and fibrotic tissues (dense collagen fibers surrounding airways were excluded from this analysis to focus on interstitial fibrotic collagen). […] The 1×, 2.5×, and 5× dosages were at the same absolute values in mg/kg as in Example B7.
The data for FIGS. 4J and 4K, was obtained 14 days after bleomycin challenge in mice were treated with Compound 5 at 2.5× dose (PO, BID for 1.5 days).

[3] = SAD and MAD first-in-human pharmacokinetic studies; assay type: in vivo; conditions: SAD study, 75 mg oral solution, healthy human subjects; for AUC(0-t): human, po, 75 mg
Procedure: Healthy human subjects (N=85) were selected for single ascending dose (SAD) and multiple ascending dose (MAD) first-in-human studies. A solution for oral administration was prepared, containing 10 mg/mL of Compound 5 in a 50:50 mixture of […], Michigan) and sterile water for irrigation. Sufficient solution was administered orally to the subjects to provide between 15 mg/dose and 75 mg/dose of Compound 5 in the SAD study and between 10 mg/dose and 40 mg/dose of Compound 5 in the MAD study. Concentrations of Compound 5 were measured in the subjects by obtaining a sample of plasma from each subject at desired intervals, and subjecting the plasma to liquid chromatography-mass spectrometry-mass spectrometry (LC-MS/MS), with quantification using a calibration curve determined from a range of solutions at standardized concentrations. The lower limit of quantitation (LLOQ) of the assay was 1 ng/mL and the calibration curve range was 1 to 500 ng/mL.

[4] = tested on: explanted human lung tissue from patients with idiopathic pulmonary fibrosis; assay: Fibrosis-related gene expression (nCounter Fibrosis Panel) in precision cut lung slices; assay type: cell-based
Excerpt: Briefly, tissue samples from patients with IPF were acquired at the time of lung transplantation. […] Treated slices were lysed in mRNA-compatible buffer for gene expression analysis. For this study, the lysate from n=6 slices per treatment per lung were pooled for analysis using the nCounter Fibrosis Panel (Nanostring) on the nCounter Max analyzer (Nanostring). This commercially available panel of 770 genes includes genes related to initial tissue damage response, chronic inflammation, proliferation of pro-fibrotic cells, and tissue modification leading to fibrotic disease. Technical quality control and normalization of raw Nanostring mRNA count data was performed using an R framework developed by Bhattacharya et al. (Bhattacharya A. et al., Brief Bioinform. 2021 May 20; 22(3):bbaa163; herein incorporated by reference in its entirety). The R packages limma (see URL www.bioconductor.org/packages/release/bioc/html/limma.html, which is incorporated herein by reference in its entirety) and voom (Law, C.

[5] = tested on: patients with idiopathic pulmonary fibrosis (IPF); assay: Phase 2a randomized, double-blind, placebo-controlled trial in IPF; assay type: in vivo, human; conditions: FIG. 36
[6] = bleomycin mice, 1×, […], 5×, vs control mice
[7] = FIG. 24 Venn region E: only altered by Compound 5 in the absence of pirfenidone
[8] = gene expression, combination vs individual treatment
[9] = single treatment, adj. p-value <0.05

COCCN(CCCCc1ccc2c(n1)NCCC2)CC[C@H](Nc1ncnc2ccccc12)C(=O)O [Compound 5, (S)-4-((2-methoxyethyl) (4-(5,6,7,8-tetrahydro-1,8-naphthyridin-2-yl)butyl)amino)-2-(quinazolin-4-ylamino) butanoic acid]
normal bronchial epithelial cell adhesion to LAP [1]: substantially inhibited | cell adhesion in the IPF-derived lung fibroblasts [2]: substantially inhibited | relationship between pSMAD3 levels in lung and BALF cells vs. plasma drug exposure (bleomycin-treated mice; 14 days after bleomycin challenge, […] dose PO BID for 1.5 days): close inverse relationship | accumulated new collagen (percentage of lung collagen containing 2H-labeled hydroxyproline) (bleomycin-treated mice; bleomycin mice, 1× and 5×, vs control mice): dose-dependent reduction | percent total collagen area in second harmonic generation images (bleomycin-treated mice; [6]): substantial, statistically significant dose-dependent reduction | total pulmonary collagen (μg of hydroxyproline) (bleomycin-treated mice; [6]): reduction in total pulmonary collagen | SMAD3 phosphorylation in lung tissue (bleomycin-treated mice; bleomycin mice, oral gavage BID 14 days, 1×, […], 5× dosages, vs vehicle): substantial, statistically significant dose-dependent reductions | Thalf [3]: 20.0 ± 3.6 h | AUC(0-t) ([3]; plasma, read-out: AUC0-24): 19700 ± 10900 ng·h/mL | AUC(0-t) ([3]; plasma, read-out: AUC0-48): 22500 ± 15700 ng·h/mL | Cmax ([3]; plasma): 1870 ± 1240 ng/mL | Tmax ([3]; plasma): 2.9 ± 1 h | Genes Down-regulated with Compound 5 and Pirfenidone Alone or in Combination, region E [4, 7]: COL3A1 and COL6A3 and LOXL1 and MARCO and MMP8 and PLPP4 | Genes Up-regulated with Compound 5 and Pirfenidone Alone or in Combination, region E [4, 7]: APOA2 and CIITA and IFI6 and NOS1 and OAS1 and TTN | Genes Down-regulated with Compound 5 and Pirfenidone Alone or in Combination, region F ([4]; FIG. 24 Venn region F: altered by Compound 5 or pirfenidone alone, but not by Compound 5 in combination with pirfenidone): CXCR4; also recorded: PECAM1 | Genes up-regulated, Venn region E (FIG. 24) ([4]; IPF precision cut lung slices, 7 days, only altered by Compound 5 in the absence of nintedanib): APOA2 and CCL13 and CIITA and IFI6 | % Reduction APOC2 [4, 8]: −1.20% | % Reduction CDH2 [4, 8]: 23.87% | % Reduction COL1A1 [4, 8]: 38.78% | % Reduction THBS2 [4, 8]: 31.47% | logFC ALDH7A1 [4, 9]: 0.57 | logFC OAS1 [4, 9]: 0.6104 | patients with FVC improvement at week 12 who maintained improvement in FVC at week 24 [5]: About 89%

— patent US20240122930A1, “INTEGRIN INHIBITORS AND USES THEREOF IN COMBINATION WITH OTHER AGENTS” (Pliant Therapeutics, Inc., priority 2022, published 2024)
